Where two headings read alike, the source gives them in different places.
Assays:
Format in all cases: in vivo
[1] = system: Myzus persicae; assay: whole plant or invertebrate
Source text: (§1) If the actual kill rate is greater than that calculated, the kill rate of the combination is superadditive, which means that a synergistic effect is present. In this case, the kill rate actually observed must be greater than the value calculated from the above formula for the expected kill rate (E).
(§2) • 78 parts by weight of acetone • 1.5 parts by weight of dimethylformamide Emulsifier: 0.5 part by weight of alkylaryl polyglycol ether
(§3) To produce an appropriate active ingredient formulation, 1 part by weight of active ingredient is mixed with the stated amounts of solvent and emulsifier, and the concentrate is diluted with emulsifier-containing water to the desired concentration.
After the desired time, the kill in % is determined. 100% means that all aphids have been killed; 0% means that no aphids have been killed. The kill rates determined are entered into Colby's formula.

[2] = system: Tetranychus urticae; assay: Tetranychus test (OP-resistant/spray treatment)
Source text: (§4) The expected action for a given combination of two active ingredients can be calculated according to S. R. Colby, Weeds 15 (1967), 20-22 as follows:
(§5) • X is the kill rate, expressed in % of the untreated control, in the case of use of active ingredient A in an application rate of m g/ha or in a concentration of m ppm, • Y is the kill rate, expressed in % of the untreated control, in the case of use of active ingredient B in an application rate of n g/ha or in a concentration of n ppm, and • E is the kill rate, expressed in % of the untreated control, in the case of use of active ingredients A and B in application rates of m and n g/ha or in a concentration of m and n ppm, then
as §1, §2, §3
Discs of bean leaves (Phaseolus vulgaris) infested by all stages of the two-spotted spider mite (Tetranychus urticae) are sprayed with an active ingredient formulation of the desired concentration.
After the desired period of time, the effect in % is determined. 100% means that all of the spider mites have been killed; 0% means that none of the spider mites have been killed.

[3] = system: Phaedon cochleariae; assay: whole plant or invertebrate; conditions: for pest or weed control at 0.16 g/ha / pest or weed control at 0.8 g/ha / pest or weed control at 4 g/ha: Phaedon cochleariae, 144 h, read-out: Kill rate in % after 6 d
Source text: as §4, §5, §1, §2, §3
Cabbage leaves (Brassica oleracea) are treated by spraying with the active ingredient formulation of the desired concentration and populated with larvae of the mustard beetle (Phaedon cochleariae) while the leaves are still moist.
After the desired period of time, the kill rate in % is determined. 100% means that all beetle larvae have been killed; 0% means that none of the beetle larvae have been killed. The kill rates determined are entered into Colby's formula.

[4] = Tetranychus urticae, 48 h, 4 g/ha, after 2 d, applied individually, read-out: Kill rate in % after 2 d
[5] = Myzus persicae, 144 h, 0.16 g/ha, after 6 d, read-out: Kill rate in % after 6 d
[6] = Myzus persicae, 144 h, 0.8 g/ha, after 6 d, read-out: Kill rate in % after 6 d
[7] = Myzus persicae, 24 h, 0.16 g/ha, after 1 d, read-out: Kill rate in % after 1 d
[8] = Myzus persicae, 24 h, 4 g/ha, after 1 d, read-out: Kill rate in % after 1 d
[9] = Myzus persicae, 24 h, 100 g/ha, after 1 d, read-out: Kill rate in % after 1 d
[10] = 4 g/ha, after 6 d, applied individually
[11] = Myzus persicae, 24 h, 20 g/ha, after 1 d, read-out: Kill rate in % after 1 d
[12] = Tetranychus urticae, 48 h, 20 g/ha, after 2 d, applied individually, read-out: Kill rate in % after 2 d
[13] = Myzus persicae, 24 h, 0.8 g/ha, after 1 d, read-out: Kill rate in % after 1 d
[14] = Myzus persicae, 24 h, read-out: Kill rate in % after 1 d
[15] = Myzus persicae, 144 h, read-out: Kill rate in % after 6 d
[16] = Tetranychus urticae, 144 h, 20 g/ha, after 6 d, applied individually, read-out: Kill rate in % after 6 d

N#Cc1ccc(CC(=NNC(=O)Nc2ccc(OC(F)(F)F)cc2)c2cccc(C(F)(F)F)c2)cc1 (mixture of isomers) [metaflumizone]
Kill rate in % after 1 d ([1]; 20 g/ha, after 1 d): 0%

CCOCn1c(-c2ccc(Cl)cc2)c(C#N)c(Br)c1C(F)(F)F [chlorfenapyr]
pest or weed control at 4 g/ha [2, 4]: 10% | pest or weed control at 0.16 g/ha [1, 5]: 0% | pest or weed control at 0.8 g/ha [1, 6]: 0%

Fc1cncc(-c2ncc(-c3cccc(-c4ncccn4)n3)s2)c1 [2-{6-[2-(5-fluoropyridin-3-yl)-1,3-thiazol-5-yl]pyridin-2-yl}pyrimidine]
pest or weed control at 0.16 g/ha ([3]; 0.16 g/ha, after 6 d): 0% | pest or weed control at 0.8 g/ha [1, 6]: 70%

CC(c1ccc(C(F)(F)F)nc1)S(C)(=O)=NC#N (stereo not shown) [sulfoxaflor]
pest or weed control at 0.16 g/ha [1, 7]: 0%

CC1(C)C(C=C(Cl)Cl)C1C(=O)OC(C#N)c1cccc(Oc2ccccc2)c1 (stereo not shown) [cypermethrin]
pest or weed control at 0.16 g/ha ([3]; 0.16 g/ha, after 6 d): 0% | pest or weed control at 4 g/ha [1, 8]: 80%

CC1=NNC(=O)N(/N=C/c2cccnc2)C1 [pymetrozine]
pest or weed control at 100 g/ha [1, 9]: 0%

spinetoram
Kill rate in % after 6 d [2, 10]: 20% | Kill rate in % after 6 d ([3]; 0.16 g/ha, after 6 d): 0% | Kill rate in % after 6 d ([1]; 0.8 g/ha, after 6 d): 0% | Kill rate in % after 1 d ([1]; 4 g/ha, after 1 d): 0%

N#C/N=C1\SCCN1Cc1ccc(Cl)nc1 [thiacloprid]
pest or weed control at 20 g/ha [1, 11]: 80% | pest or weed control at 0.8 g/ha [1, 6]: 80%

CC1(C)C(C=C(Cl)Cl)C1C(=O)OC(C#N)c1cccc(Oc2ccccc2)c1 (stereo not drawn) [alpha-cypermethrin]
pest or weed control at 4 g/ha [2, 4]: 0% | pest or weed control at 0.16 g/ha [1, 7]: 70%

Cc1cc(C(F)(C(F)(F)F)C(F)(F)F)ccc1NC(=O)c1cccc(I)c1C(=O)NC(C)(C)CS(C)(=O)=O [flubendiamide]
pest or weed control at 20 g/ha [2, 12]: 0% | pest or weed control at 0.8 g/ha ([3]; 0.8 g/ha, after 6 d): 0%

CNC(=O)c1cc(C#N)cc(C)c1NC(=O)c1cc(Br)nn1-c1ncccc1Cl [cyantraniliprole]
Kill rate in % after 2 d ([3]; 0.16 g/ha, after 2 d): 0% | pest or weed control at 0.16 g/ha ([3]; 0.16 g/ha, after 6 d): 0% | pest or weed control at 0.16 g/ha [1, 5]: 0%

CNC(=O)Oc1cccc2c1OC(C)(C)C2 [carbofuran]
pest or weed control at 20 g/ha [1, 11]: 70%

CC1(C)[C@H](C(=O)O[C@H](C#N)c2cccc(Oc3ccccc3)c2)[C@@H]1C=C(Br)Br [deltamethrin]
pest or weed control at 0.8 g/ha [1, 13]: 0%

CC1(C)[C@H](C=C(Cl)Cl)[C@H]1C(=O)OCc1c(F)c(F)cc(F)c1F [transfluthrin]
pest or weed control at 20 g/ha [1, 11]: 70%

COP(=O)(NC(C)=O)SC (stereo not shown) [acephate]
pest or weed control at 4 g/ha [3]: 0% | pest or weed control at 100 g/ha [1, 14]: 0%

O=[N+]([O-])NC1=NCCN1Cc1ccc(Cl)nc1 [imidacloprid]
pest or weed control at 0.8 g/ha [1, 13]: 0%

CC(C)N1C(=O)N(c2ccccc2)CS/C1=N\C(C)(C)C [buprofezin]
pest or weed control at 500 g/ha ([1]; Myzus persicae, 24 h, 500 g/ha, after 1 d, read-out: Kill rate in % after 1 d): 0%

CC(C)c1cc(Oc2ccccc2)cc(C(C)C)c1NC(=S)NC(C)(C)C [diafenthiuron]
pest or weed control at 100 g/ha ([2]; Tetranychus urticae, 48 h, read-out: Kill rate in % after 2 d): 0% | pest or weed control at 20 g/ha ([2]; Tetranychus urticae, 144 h, read-out: Kill rate in % after 6 d): 10% | pest or weed control at 100 g/ha [1, 14]: 0% | pest or weed control at 20 g/ha [1, 15]: 70%

CCCSP(=O)(OCC)SCCC [ethoprophos]
pest or weed control at 0.8 g/ha ([3]; 0.8 g/ha, after 6 d): 0% | pest or weed control at 4 g/ha [1, 15]: 0%

CC1(C)[C@H](C(=O)O[C@H](C#N)c2cccc(Oc3ccccc3)c2)[C@@H]1/C=C\C(=O)OC(C(F)(F)F)C(F)(F)F [acrinathrin]
pest or weed control at 0.8 g/ha ([2]; Tetranychus urticae, 48 h, after 2 d, applied individually, read-out: Kill rate in % after 2 d): 0% | pest or weed control at 4 g/ha [2, 4]: 20% | pest or weed control at 0.8 g/ha ([2]; Tetranychus urticae, 144 h, after 6 d, applied individually, read-out: Kill rate in % after 6 d): 40% | pest or weed control at 0.8 g/ha [1, 13]: 0%

CN/C(=N\[N+](=O)[O-])NCc1cnc(Cl)s1 [clothianidin]
pest or weed control at 20 g/ha [1, 11]: 70% | pest or weed control at 0.16 g/ha [1, 5]: 0%

N#Cc1nn(-c2c(Cl)cc(C(F)(F)F)cc2Cl)c(N)c1[S+]([O-])C(F)(F)F (stereo not shown) [fipronil]
Kill rate in % after 2 d ([3]; 0.16 g/ha, after 2 d): 67% | pest or weed control at 0.16 g/ha [1, 5]: 0%

Cc1cc(C)c(C2=C(OC(=O)CC(C)(C)C)C3(CCCC3)OC2=O)c(C)c1 [spiromesifen]
Kill rate in % after 6 d [2, 10]: 70% | Kill rate in % after 6 d ([2]; 20 g/ha, after 6 d, applied individually): 80% | Kill rate in % after 1 d ([1]; 4 g/ha, after 1 d): 0%

CNC(=O)Oc1cc(C)c(SC)c(C)c1 [methiocarb]
pest or weed control at 20 g/ha [1, 11]: 0%

CCOP(=S)(OCC)Oc1nc(Cl)c(Cl)cc1Cl [chlorpyrifos]
pest or weed control at 100 g/ha ([2]; Tetranychus urticae, 144 h, 100 g/ha, after 6 d, applied individually, read-out: Kill rate in % after 6 d): 0% | pest or weed control at 4 g/ha [1, 8]: 80%

CS/C(C)=N\OC(=O)N(C)SN(C)C(=O)O/N=C(\C)SC [thiodicarb]
pest or weed control at 100 g/ha ([2]; Tetranychus urticae, 48 h, 100 g/ha, after 2 d, applied individually, read-out: Kill rate in % after 2 d): 0% | pest or weed control at 20 g/ha [1, 11]: 0%

Cc1c(COC(=O)[C@@H]2[C@H](/C=C(\Cl)C(F)(F)F)C2(C)C)cccc1-c1ccccc1 (racemic) [bifenthrin]
pest or weed control at 0.16 g/ha ([2]; Tetranychus urticae, 48 h, 0.16 g/ha, after 2 d, applied individually, read-out: Kill rate in % after 2 d): 0% | pest or weed control at 0.8 g/ha [1, 13]: 80%

N#CCNC(=O)c1cnccc1C(F)(F)F [flonicamid]
Kill rate in % after 1 d ([1]; 20 g/ha, after 1 d): 0%

CN/C(=N/CC1CCOC1)N[N+](=O)[O-] (stereo not shown) [dinotefuran]
Kill rate in % after 2 d ([3]; in vivo): 0%

CC[S+]([O-])c1c(C#N)nn(-c2c(Cl)cc(C(F)(F)F)cc2Cl)c1N (stereo not shown) [ethiprole]
pest or weed control at 4 g/ha [1, 8]: 0%

milbemectin
Kill rate in % after 2 d ([2]; 0.032 g/ha, after 2 d, applied individually): 50% | Kill rate in % after 6 d ([1]; 0.032 g/ha, after 6 d): 0% | Kill rate in % after 1 d ([1]; 0.8 g/ha, after 1 d): 0%

COP(N)(=O)SC (stereo not shown) [methamidophos]
pest or weed control at 20 g/ha [1, 11]: 0% | pest or weed control at 100 g/ha [1, 9]: 80%

CC1(C)C(C=C(Cl)Cl)C1C(=O)OC(C#N)c1ccc(F)c(Oc2ccccc2)c1 (stereo not drawn) [β-cyfluthrin]
Kill rate in % after 2 d ([3]; 0.032 g/ha, after 2 d): 0% | Kill rate in % after 1 d ([1]; 0.032 g/ha, after 1 d): 0% | Kill rate in % after 1 d ([1]; 0.16 g/ha, after 1 d): 70%

Cc1cc(Cl)cc(C)c1C1=C(O)C2(CCC3(CC2)OCCO3)NC1=O [11-(4-chloro-2,6-dimethylphenyl)-12-hydroxy-1,4-dioxa-9-azadispiro[4.2.4.2]tetradec-11-en-10-one]
pest or weed control at 0.8 g/ha [1, 6]: 0%

C/C(=N\C#N)N(C)Cc1ccc(Cl)nc1 [acetamiprid]
pest or weed control at 0.16 g/ha [1, 5]: 0%

CCOC(=O)OC1=C(c2cc(C)ccc2C)C(=O)N[C@]12CC[C@@H](OC)CC2 [spirotetramat]
pest or weed control at 4 g/ha [2, 4]: 0%

CNC(=O)O/N=C/C(C)(C)SC [aldicarb]
Kill rate in % after 2 d ([3]; 0.8 g/ha, after 2 d): 0% | pest or weed control at 0.8 g/ha [1, 6]: 0%

O=C(NC(=O)c1ccccc1Cl)Nc1ccc(OC(F)(F)F)cc1 [triflumuron]
pest or weed control at 4 g/ha ([3]; 4 g/ha, after 6 d): 0% | pest or weed control at 4 g/ha ([1]; Myzus persicae, 144 h, 4 g/ha, after 6 d, read-out: Kill rate in % after 6 d): 0% | pest or weed control at 20 g/ha ([1]; Myzus persicae, 144 h, 20 g/ha, after 6 d, read-out: Kill rate in % after 6 d): 0%

O=C1C=C(N(Cc2ccc(Cl)nc2)CC(F)F)CO1 [4-{[(6-chloropyrid-3-yl)methyl](2,2-difluoroethyl)amino}furan-2(5H)-one]
pest or weed control at 20 g/ha [2, 12]: 0% | pest or weed control at 20 g/ha [1, 11]: 0%

CN1COCN(Cc2cnc(Cl)s2)/C1=N\[N+](=O)[O-] [thiamethoxam]
pest or weed control at 20 g/ha [1, 11]: 70%

CCOP(=O)(SC(C)CC)SC(C)CC (stereo not shown) [cadusaphos]
pest or weed control at 20 g/ha [2, 16]: 0% | pest or weed control at 20 g/ha [1, 11]: 0%

Cc1c(F)c(F)c(COC(=O)[C@@H]2[C@H](/C=C(\Cl)C(F)(F)F)C2(C)C)c(F)c1F (racemic) [tefluthrin]
pest or weed control at 20 g/ha [2, 16]: 0%
